Test results: patent US6391902B1, “Substituted benzofuranoindoles and indenoindoles as novel potassium channel openers” (American Home Products Corporation, priority 1998, dated 2002)
Marks after values point to notes of the source that are not given here.

How the values were obtained:
Aorta Tissue = experiment: Relaxation of KCl-contracted isolated rat thoracic aortic rings (contractile force); parameters: species or system Sprague-Dawley rats; details: for IC50: Rattus norvegicus; for Ratio Aorta IC50 / Bladder IC50: aorta IC50 divided by bladder IC50, tissue selectivity
Method: The smooth muscle (aorta) relaxing activity of the compounds of this ivention was established in accordance with standard pharmaceutically accepted test procedures with representative compounds as follows.
Male Sprague-Dawley rats (150-200 g) are rendered unconscious by CO2 asphyxiation and then euthanized by cervical dislocation. The thoracic aorta is removed into warm (37° C.) physiological sial solution (PSS) of the following composition (mM): NaCl, 118.4; KCl, 4.7; CaCl2, 2.5; MgSO4.7H2O, 1.2; NaHCO3, 24.9; KH2PO4, 1.2; glucose, 11.1; EDTA, 0.023; gassed with 95% O2/5% CO2; pH 7.4. The aorta is cleaned of fat and loose adventitia and cut into rings 3-4 mm in width. The rings are subsequently suspended between two stainless steel wire tissue holders in a 10 mL tissue bath. One wire tissue holder is attached to a fixed hook while the other is attached to an isometric force transducer. Resting tension is set at 1 g. The tissues are to recover for a period of 60 min prior to beginning the experiment. Tissues are challenged with PSS containing 25 mM KCl to elicit a contracture. The tissues are then washed repeatedly with fresh PSS over a period of 30 min and allowed to recover to baseline tension. PSS containing 30-35 mM KCl is then introduced into the tissue bath to evoke a contracture that is allowed to stabilize for not less than 45 min. (Other stimuli such as norepinephrine, PGF2a, histamine, angiotensin II, endothelin or PSS containing 80 mM KCl may also be used to evoke a contracture as necessary). Increasing concentrations of test compound or vehicle are then added to the tissue bath in a cumulative fashion.
Isometric force development by the aortic rings is measured using a force transducer and recorded on a polygraph. The percentage inhibition of contractile force evoked by each concentration of a given test compound is used to generate a concentration-response curve. […] [Log concentration versus response curves are approximately linear between 20% and 80% of the maximum response. As such, the IC50 concentration of the drug is determined by linear regression analysis (where x=log concentration and y=% inhibition) of the data points in the 20% to 80% region of the curve.] […] Data collected from 2 animals are averaged for primary screens.

Bladder Tissue = experiment: Relaxation of KCl-stimulated isolated rat bladder strips (contractile activity); parameters: species or system Sprague-Dawley rats; details: for inhibition at 30 µM: read-out: Bladder Tissue I = Percent inhibition at 30 μM
Method: Sprague-Dawley rats (150-200 g) are rendered unconscious by CO2 asphyxiation and then euthanized by cervical dislocation. The bladder is removed into warm (37° C.) physiological salt solution (PSS) of the following composition (mM): NaCl, 118.4; KCl, 4.7; CaCl2, 2.5; […]; NaHCO3, 24.9; KH2PO4, 1.2; glucose, 11.1; EDTA, 0.023; gassed with 95% O2; […]; pH 7.4. The bladder is opened and then cut into strips 1-2 mm in width and 7-10 mm in length. The strips are subsequently suspended in a 10 mL tissue bath under an initial resting tension of 1.5 g. The strips are held in place by two surgical clips one of which is attached to a fixed hook while the other is attached to an isometric force transducer. […] The carbachol is then washed out and the tissue allowed to relax to its resting level of activity. Following a further 30 min period of recovery an additional 15 mM KCl re introduced into the tissue bath. […] Following stabilization of this enhanced level of contractile activity, incremental increases in the concentration of test compound or vehicle are introduced into the tissue bath. Contractile activity is measured for each compound or vehicle concentration during the last minute of a 30 minute challenge.

[1] = rat bladder strips, additional 15 mM KCl, 30 μM test compound

O.O.O=C(O)c1cccc2c1[nH]c1c3cc([N+](=O)[O-])ccc3oc21 (hydrate or solvate) [Example 4, 8-Nitro-10H-benzo[4,5]furo[3,2-b]indole-1-carboxylic acid dihydrate]
melting point: 325 °C (dec.)

N#Cc1cccc2c1[nH]c1c3cc(Br)ccc3oc21.O (hydrate or solvate) [Example 10, 8-Bromo-10H-benzo[4,5]furo[3,2-b]indole-1-carbonitrile hydrate]
melting point: 277 to 280 °C (dec.)

O=C(O)c1cccc2c1[nH]c1c3cc(Br)ccc3oc21 [Example 1, 8-Bromo-10H-benzo[4,5]furo[3,2-b]indole-1-carboxylic acid]
IC50 (Aorta Tissue): 119 ± 21.8 µM | Ratio Aorta IC50 / Bladder IC50 (Aorta Tissue): 7.9 | IC50 (Bladder Tissue; Rattus norvegicus, 0.5 h): 15.1 ± 4.7 µM | melting point: 312 to 313 °C

O=C(O)c1cccc2c1[nH]c1c3cc(I)ccc3oc21 [Example 2, 8-Iodo-10H-benzo[4,5]furo[3,2-b]indole-1-carboxylic acid]
IC50 (Aorta Tissue): 128 ± 16.9 µM | Ratio Aorta IC50 / Bladder IC50 (Aorta Tissue): 21 | IC50 (Bladder Tissue; Rattus norvegicus, 0.5 h): 6.1 ± 3 µM | melting point: 297 °C (dec.)

O=C(O)c1cccc2c1[nH]c1c3cc(Cl)ccc3oc21 [Example 3, 8-Chloro-10H-benzo[4,5]furo[3,2-b]indole-1-carboxylic acid]
IC50 (Aorta Tissue): 268 ± 82.3 µM | Ratio Aorta IC50 / Bladder IC50 (Aorta Tissue): 46.2 | IC50 (Bladder Tissue; Rattus norvegicus, 0.5 h): 5.8 ± 1.5 µM | melting point: 303 °C (dec.)

O.O.O=C(O)c1cccc2c1[nH]c1c3cc([N+](=O)[O-])ccc3oc21 [Example 4, 8-Nitro-10H-benzo[4,5]furo[3,2-b]indole-1-carboxylic acid dihydrate]
IC50 (Aorta Tissue): 125 ± 13.8 µM | Ratio Aorta IC50 / Bladder IC50 (Aorta Tissue): 19.8 | IC50 (Bladder Tissue; Rattus norvegicus, 0.5 h): 6.3 ± 2.6 µM

NC(=O)c1cccc2c1[nH]c1c3cc(Br)ccc3oc21 [Example 5, 8-Bromo-10H-benzo[4,5]furo[3,2-b]indole-1-carboxylic acid amide]
inhibition at 30 µM (Bladder Tissue; [1]): 13.5% | melting point: 300 to 301 °C

COC(=O)c1cccc2c1[nH]c1c3cc(Br)ccc3oc21 [Example 6, 8-Bromo-10H-benzo[4,5]furo[3,2-b]indole-1-carboxylic acid methyl ester]
inhibition at 30 µM (Bladder Tissue; [1]): 31% | melting point: 204 to 205 °C

OCc1cccc2c1[nH]c1c3cc(Br)ccc3oc21 [Example 7, (8-Bromo-10H-benzo[4,5]furo[3,2-b]indol-1-yl)-methanol]
melting point: 218 to 219 °C

CN(O)C(=O)c1cccc2c1[nH]c1c3cc(Br)ccc3oc21 [Example 8, 8-Bromo-10H-benzo[4,5]furo[3,2-b]indole-1-carboxylic acid hydroxy-methyl amide]
IC50 (Aorta Tissue): 8.1 ± 3.6 µM | Ratio Aorta IC50 / Bladder IC50 (Aorta Tissue): 0.41 | IC50 (Bladder Tissue; Rattus norvegicus, 0.5 h): 19.8 ± 4.02 µM | melting point: 174 to 175 °C

O=Cc1cccc2c1[nH]c1c3cc(Br)ccc3oc21 [Example 9, 8-Bromo-10H-benzo[4,5]furo[3,2-b]indole-1-carbaldehyde]
inhibition at 30 µM (Bladder Tissue; [1]): 19% | melting point: 280 to 281 °C

N#Cc1cccc2c1[nH]c1c3cc(Br)ccc3oc21 [Example 10, 8-Bromo-10H-benzo[4,5]furo[3,2-b]indole-1-carbonitrile hydrate]
inhibition at 30 µM (Bladder Tissue; [1]): 10.1%

Brc1ccc2oc3c4cccc(-c5nnn[nH]5)c4[nH]c3c2c1 [Example 11, 8-Bromo-1-(1H-tetrazol-5-yl)-10H-benzo[4,5]furo[3,2-b]indole]
inhibition at 30 µM (Bladder Tissue; [1]): 30.9% | melting point: 275 to 277 °C (dec.)

CC(NC(=O)c1cccc2c1[nH]c1c3cc(Br)ccc3oc21)C(C)(C)C (stereo not drawn) [Example 12, 8-Bromo-10H-benzo[4,5]furo[3,2-b]indole-1-carboxylic acid (1,2,2-trimethyl-propyl)-amide]
IC50 (Aorta Tissue): 25 ± 3.9 µM | Ratio Aorta IC50 / Bladder IC50 (Aorta Tissue): 1.8 | IC50 (Bladder Tissue; Rattus norvegicus, 0.5 h): 13.9 ± 0.95 µM | melting point: 173 to 175 °C

CCC(C)(C)NC(=O)c1cccc2c1[nH]c1c3cc(Br)ccc3oc21 [Example 13, 8-Bromo-10H-benzo[4,5]furo[3,2-b]indole-1-carboxylic acid (1,1-dimethyl-propyl)-amide]
inhibition at 30 µM (Bladder Tissue; [1]): 28.5% | melting point: 242 to 244 °C (dec.)

CNC(=O)c1cccc2c1[nH]c1c3cc(Br)ccc3oc21 [Example 14, 8-Bromo-10H-benzo[4,5]furo[3,2-b]indole-1-carboxylic acid methylamide]
inhibition at 30 µM (Bladder Tissue; [1]): 4.8% | melting point: 264 to 265 °C (dec.)

COC(=O)c1cccc2c3oc4ccc(Br)cc4c3n(C)c12 [Example 15, 8-Bromo-10-methyl-10H-benzo[4,5]furo[3,2-b]indole-1-carboxylic acid methyl ester]
inhibition at 30 µM (Bladder Tissue; [1]): 4.5% | melting point: 195 to 196 °C

O=C(O)c1cccc2c1[nH]c1c3ccccc3oc21 [Example 16, 10H-Benzo[4,5]furo[3,2-b]indole-1-carboxylic acid]
IC50 (Bladder Tissue; Rattus norvegicus, 0.5 h): 31 ± 6.5 µM | melting point: 279 to 280 °C (dec.)

O=C(O)c1cccc2c1Cc1c-2[nH]c2ccc(I)cc12 [Example 17, 8-Iodo-5,10-dihydro-indeno[1,2-b]indole-1-carboxylic acid 0.6 hydrate]
IC50 (Bladder Tissue; rat bladder strips, additional 15 mM KCl, 50% inhibition of pre-drug contractile activity, 30 minute challenge): 10.1 ± 3.2 µM

NS(=O)(=O)c1ccc2[nH]c3c(c2c1)Cc1c(C(=O)O)cccc1-3.NS(=O)(=O)c1ccc2[nH]c3c(c2c1)Cc1c(C(=O)O)cccc1-3.O [Example 18, 8-Sulfamoyl-5,10-dihydro-indeno[1,2-b]indole-1-carboxylic acid hemi-hydrate]
Bladder Tissue I = Percent inhibition at 30 μM (Bladder Tissue; [1]): I = 5.2%*

O=C(O)c1cccc2c1Cc1c-2[nH]c2ccc(F)cc12 [Example 19, 8-Fluoro-5,10-dihydro-indeno[1,2-b]indole-1-carboxylic acid]
IC50 (Aorta Tissue): 46.6 ± 18.7 µM | Ratio Aorta IC50 / Bladder IC50 (Aorta Tissue): 3.74 | IC50 (Bladder Tissue; Rattus norvegicus, 0.5 h): 12.5 ± 5 µM | melting point: > 300 °C

O=C(O)c1cccc2c1Cc1c-2[nH]c2ccc(Cl)cc12 [Example 20, 8-Chloro-5,10-dihydro-indeno[1,2-b]indole-1-carboxylic acid]
IC50 (Bladder Tissue; Rattus norvegicus, 0.5 h): 22.6 ± 1.8 µM | melting point: > 300 °C

O=C(O)c1cccc2c1Cc1c-2[nH]c2ccc(OC(F)(F)F)cc12 [Example 21, 8-Trifluoromethoxy-5,10-dihydro-indeno[1,2-b]indole-1-carboxylic acid]
IC50 (Bladder Tissue; Rattus norvegicus, 0.5 h): 15.4 ± 4.8 µM | melting point: 256 to 265 °C (dec.)

CCOC(=O)c1cccc2c1Cc1c-2[nH]c2ccc(Cl)cc12 [Example 22, 8-Chloro-5,10-dihydro-indeno[1,2-b]indole-1-carboxylic acid ethyl ester]
inhibition at 30 µM (Bladder Tissue; [1]): 8% | melting point: 202 to 204 °C

CCOC(=O)c1cccc2c1Cc1c-2[nH]c2ccc(Br)cc12 [Example 23, 8-Bromo-5,10-dihydro-indeno[1,2-b]indole-1-carboxylic acid ethyl ester]
inhibition at 30 µM (Bladder Tissue; [1]): 20% | melting point: 198 to 200 °C

O=C(O)c1cccc2c1Cc1c-2[nH]c2ccc(Br)cc12 [Example 25, 8-Bromo-5,10-dihydro-indeno[1,2-b]indole-1-carboxylic acid]
IC50 (Aorta Tissue): 110 ± 12.4 µM | Ratio Aorta IC50 / Bladder IC50 (Aorta Tissue): 25 | IC50 (Bladder Tissue; Rattus norvegicus, 0.5 h): 4.4 ± 0.95 µM | melting point: 328 to 330 °C (dec.)

O=C(O)c1cccc2c3c([nH]c12)-c1cc(Br)ccc1C3 [Example 26, 3-Bromo-5,10-dihydro-indeno[1,2-b]indole-6-carboxylic acid]
IC50 (Aorta Tissue): 210 ± 45 µM | melting point: 245 to 247 °C (dec.)
